Patent US5686454A, “Camphorcarbonyl” (Merck & Co., Inc., priority 1996, dated 1997)

Target: T1, uterine OT receptors (Rattus norvegicus, UniProt P70536)
T1 construct: crude membrane preparation of uteri; from tissue; host or cells: uterus of DES-treated rats, crude membranes
T1 sequence (P70536 1-388): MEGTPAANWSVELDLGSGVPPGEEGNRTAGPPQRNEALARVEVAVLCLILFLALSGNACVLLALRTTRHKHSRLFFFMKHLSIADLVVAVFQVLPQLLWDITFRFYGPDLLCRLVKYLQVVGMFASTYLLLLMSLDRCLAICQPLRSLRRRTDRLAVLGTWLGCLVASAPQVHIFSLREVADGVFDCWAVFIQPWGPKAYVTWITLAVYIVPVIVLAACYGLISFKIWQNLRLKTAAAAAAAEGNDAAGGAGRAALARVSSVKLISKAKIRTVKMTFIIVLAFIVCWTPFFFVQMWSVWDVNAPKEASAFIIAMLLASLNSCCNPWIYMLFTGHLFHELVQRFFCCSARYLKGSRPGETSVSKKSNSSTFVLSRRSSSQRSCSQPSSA
Experiment: Radioligand binding: competition of [^3 H]oxytocin binding to rat uterine membranes
Details: for IC50: 1 nM [^3 H]OT, rat uterus membranes, 60 minutes, 22° C., pH 7.4, read-out: IC50; for inhibition at 1 µM: read-out: % inhibition at 1000 nM
From the text: RADIOGLIGAND BINDING ASSAYS
The high affinity binding of [^3 H]

SMILES: Cc1ccccc1N1CCN(C(=O)C2C3CCC(C)(C2NC(=O)C(C)(C)O)C3(C)C)CC1 (stereo not shown) [Example 17]
- IC50: 16 nM

SMILES: COC(=O)CCN1CCC[C@H]1C(=O)NCC(C)C1(O)CC2CCC1(CS(=O)(=O)N1CCN(c3ccccc3C)CC1)C2(C)C (stereo partly drawn) [Example 81, 1-((7,7-Dimethyl-2-exo-hydroxy-2-endo-2-(1-(1--N -(methoxycarbonylethyl)prolyl)amino)propylbicyclo-(2.2.1)heptan-1-yl)methanesulfonyl)-4-(2-methyl-phenyl)piperazine]
- IC50: 20 nM

SMILES: Cc1ccccc1N1CCN(S(=O)(=O)C[C@]23CC[C@H](CC2=CCNCC(C)C)C3(C)C)CC1 [Example 50, 1-((7,7-dimethyl-2-(2-isobutylamino)ethylidine-bicyclo(2.2.1)heptan-1-yl)methanesulfonlyl)-4-(2-methylphenyl)piperazine]
- inhibition at 1 µM: 44%

SMILES: Cc1ccccc1N1CCN(S(=O)(=O)CC23CCC(CC2(O)C(C)CNC(=O)C2CCNCC2)C3(C)C)CC1 (stereo not shown) [Example 90]
- IC50: 30 nM

SMILES: Cc1ccccc1N1CCN(S(=O)(=O)C[C@]23CC[C@H](C[C@]2(O)C(C)CNC(=O)[C@@H]2CCCN2CCCC(=O)O)C3(C)C)CC1 (stereo partly drawn) [Example 42, 1-((7,7-Dimethyl-2-exo-hydroxy-2-endo-2-(1-(1-N-(3-carboxypropyl)prolyl)amino)propyl-bicyclo(2.2.1)heptan-1-yl)methanesulfonyl)-4-(2-methylphenyl) piperazine]
- IC50: 10 nM

SMILES: Cc1ccccc1N1CCN(S(=O)(=O)C[C@]23CC[C@H](CC2=CCCl)C3(C)C)CC1 [Example 49, 1-((7,7-dimethyl-2-(2-chloro)ethylidinebicyclo-(2.2.1)heptan-1-yl)methanesulfonyl)-4-(2-methyl-phenyl)piperazine]
- IC50: 1100 nM

SMILES: Cc1ccccc1N1CCN(C(=O)C2C3CCC(C)(C2NC(=O)Cc2c[nH]cn2)C3(C)C)CC1 (stereo not shown) [Example 13, 1-(2-Methylphenyl)-4-[(4,7,7-trimethyl-3-(2-(4-imidazolyl))acetylaminobicyclo[2.21]hept-2-yl)carbonyl]-piperazine]
- IC50: 33.3 nM

SMILES: Cc1ccccc1N1CCN(S(=O)(=O)CC23CCC(CC2NC(=O)[C@H](CCS(C)(=O)=O)N(C)C)C3(C)C)CC1 (stereo partly drawn) [Example 74, 1-((7,7-Dimethyl-2-endo-(2S-(dimethylamino)-4-(methylsulfonyl)butyramido)-bicyclo(2.2.1)heptan-1-yl)methanesulfonyl)-4-(2-methylphenyl)piperazine]
- inhibition at 1 µM: 54%

SMILES: CC(=O)NC1C(C(=O)N2CCN(c3ccccc3C)CC2)C2CCC1(C)C2(C)C (stereo not shown) [Example 14, 1-(2-methylphenyl)-4-[(4,7,7-trimethyl-3-acetylaminobicyclo[2.2.1]hept-2-yl)carbonyl]-piperazine]
- IC50: 55 nM

SMILES: CCOC(=O)CCCN1CCC[C@H]1C(=O)NCC(C)[C@@]1(O)C[C@H]2CC[C@]1(CS(=O)(=O)N1CCN(c3ccccc3C)CC1)C2(C)C (stereo partly drawn) [Example 41, 1-((7,7-Dimethyl-2-exo-hydroxy-2-endo-2-(1-(1-N-(ethoxycarbonylpropyl)prolyl)amino)propyl-bicyclo(2.2.1)heptan-1-yl)methanesulfonyl)-4-(2-methylphenyl)piperazine]
- IC50: 100 nM

SMILES: Cc1ccccc1N1CCN(S(=O)(=O)CC23CCC(CC2=O)C3(C)C)CC1=O (stereo not shown) [Example 66, 1-((7,7-Dimethyl-2-oxo-bicyclo(2.2.1)heptan-1-yl)methanesulfonyl)-4-(2-methylphenyl)-3-piperazinone]
- inhibition at 10 µM (read-out: % inhibition at 10,000 nM): 5%

SMILES: CCOC(=O)CCN1CCCC1C(=O)NC1C(C(=O)N2CCN(c3ccccc3C)CC2)C2CCC1(C)C2(C)C (stereo not shown) [Example 16]
- IC50: 27 nM

SMILES: Cc1ccccc1N1CCN(S(=O)(=O)CC23CCC(CC2(O)C(C)CNC(=O)C2CCCN(CCC(=O)O)C2)C3(C)C)CC1 (stereo not shown) [Example 85]
- inhibition at 0.1 µM (read-out: % inhibition at 100 nM): 66%
